Data from PubChem BioAssay AID2060489 (Molecular Pharmacology Branch, DTP, NCI, 2025).
Several values for one entry are separate records, joined by “and”; a condition that tells them apart may be missing. Equal entries are not always repeated.

Test system: 922993-354-T-J3-PDC complex spheroids, viability
Assay: Anticancer human tumor 922993-354-T-J3-PDC patient-derived endometrial carcinoma cell line growth inhibition [GQUAD]
Settings: for viability, T/C: stronger effect = lower value; for IC50: curve of compound
Text: DNA G-quadruplex Stabilizer Agents in Combinations in Complex Spheroids
A high-throughput screen of multi-cell type tumor spheroids was designed to identify active combinations of DNA G-quadruplex stabilizer agents and targeted small molecules. Complex spheroids include a stromal component modeled by human endothelial cells (HUVEC) and fibroblasts modeled by human mesenchymal stem cells (MSCs). The concentration ranges selected for each drug and investigational agent were based upon clinically achievable concentrations if the clinical Cmax of the agent was known.
Compounds. The drugs and investigational agents: pidnarulex (CX-5461; NSC782164), APTO-253 (NSC789042), BRACO-19 (NSC847499), peposertib (NSC802822), ceralasertib (NSC780249), elimusertib (NSC800525), camonsertib (NSC841442), AZD-1390 (NSC803789), olaparib (NSC753686), talazoparib (NSC767125), ART-558 (NSC835418), sotorasib (NSC818433), MRTX-1133 (NSC836407), SN-38 (NSC673596), topotecan (NSC609699), etoposide (NSC141540), doxorubicin (NSC123127), gemcitabine (NSC613327), 5-fluorouracil (NSC19893), paclitaxel (NSC125973), vemurafenib (NSC761431), panobinostat (NSC761190), R-306465 (JNJ-16241199; NSC773264), adavosertib (NSC754352), TP-3654 (NSC805149), carboplatin (NSC241240), KSQ-4279 (NSC840948), and staurosporine (NSC755774) were obtained from the National Cancer Institute (NCI) Developmental Therapeutics Program Chemical Repository (34). The FDA-approved anticancer drug set is available from the NCI Developmental Therapeutics Program. […] The stock solutions were prepared in dimethyl sulfoxide (DMSO, Sigma-Aldrich, St. Louis, MO, cat. D2650) at 800-fold the tested concentration and stored at -70 degrees C prior to their use. All drugs and investigational agents were tested over a range starting from a high concentration at or near the clinical Cmax and decreasing in half-log increments. If the clinical Cmax for an agent had not been determined, the highest concentration tested was 10 microM.
2.3 Cell Culture. All cells were maintained in an incubator at 37 degrees C and 5% CO2 with 95% humidity. The PDC lines were cultured according to standard operating procedures established by the NCI PDMR. All PDCs were thawed and cultured in Matrigel-coated flasks prepared with a working solution of 1X Ham's F-12 nutrient mix, without supplementation (Invitrogen, cat. 11765054), 100 U/mL penicillin-streptomycin (Invitrogen, cat. 15140122), and 2.5% Matrigel (Corning Inc., cat. 354248) for the first three passages. The 857933-349-R-J2-PDC line was cultured in 6C/Colon 1B media, which includes advanced DMEM/F-12 (Thermo Fisher Scientific, cat. 12634028), 10 mM HEPES (Thermo Fisher Scientific, cat. 15630080), 1X GlutaMAX supplement (Thermo Fisher Scientific, cat. 35050061), 0.1 mg/mL primocin (InvivoGen, cat. ant-pm-2), 10% defined fetal bovine serum, heat inactivated (HyClone Laboratories Inc., cat. SH30070.03HI), 50% L-WRN conditioned media (ATCC, cat. CRL-3276), 1.25 mM N-Acetyl-L-cysteine (Sigma-Aldrich, cat. A9165), 10 mM nicotinamide (Sigma-Aldrich, cat. N0636), 1X B-27 supplement (Thermo Fisher Scientific, cat. 17504044), 1X N-2 supplement (Thermo Fisher Scientific, cat. 17502048), 10 microM Y-27632 dihydrochloride (Tocris Bioscience, cat. 1254), and 50 ng/mL human EGF recombinant protein (Thermo Fisher Scientific, cat. PHG0311). The 485176-168-R4-J1-PDC line was cultured in Panc media, which includes all 6C/Colon 1B media components plus 100 ng/mL human FGF-10 (Thermo Fisher Scientific, cat. 100-26), 500 nM SB-431542 (Selleckchem, cat. S1067), and gastrin (Tocris, cat. 3006).
[…]
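Note: spheroids exposed to compounds for seven days.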
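Throughout, for viability, T/C: 100% = DMSO vehicle control viability.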

| IC50 | Compound | viability, T/C (compound 0.0316 µM) | viability, T/C (compound 0.1 µM) | viability, T/C (compound 0.316 µM) | viability, T/C (compound 1 µM) | viability, T/C (compound 3.16 µM) | viability, T/C (compound 10 µM) | viability, T/C (compound 0.000999 µM) | viability, T/C (compound 0.00316 µM) | viability, T/C (compound 0.00999 µM) | viability, T/C (compound 0.0999 µM) |
| --- | --- | --- | --- | --- | --- | --- | --- | --- | --- | --- | --- |
| > 10000 nM | C=CC(=O)N1CCN(c2nc(=O)n(-c3c(C)ccnc3C(C)C)c3nc(-c4c(O)cccc4F)c(F)cc23)C(C)C1 (configuration not stated) | 101% and 110% and 99.2% | 88.4% and 88.3% and 112% | 102% and 124% and 99.9% | 91.4% and 97.3% and 95.3% | 93.3% and 95.4% and 128% | 97.9% and 97.8% and 89.3% |  |  |  |  |
| 273 nM and 184 nM and 451 nM | CC1COCCN1c1cc(-c2ccnn2C)c2ccnc(-c3ccn[nH]3)c2n1 (configuration not stated) | 83.5% and 95% and 87.4% | 71.5% and 63.7% and 70.4% | 48.3% and 41.6% and 62.9% | 22.1% and 12.8% and 28.7% | 19.6% and 22% and 23.4% | 16.8% and 19.2% and 17.7% |  |  |  |  |
| > 10000 nM | CC1COCCN1c1cc(C2(S(C)(=N)=O)CC2)nc(-c2ccnc3[nH]ccc23)n1 (configuration not stated) | 99.8% and 96.6% and 97.3% | 93.4% and 96.7% and 96.8% | 91.8% and 84.6% and 95.6% | 106% and 98.6% (2×) | 93.7% and 129% and 92.5% | 65.3% and 70.4% and 60.7% |  |  |  |  |
| 298 nM and 241 nM and 249 nM | CC[C@@]1(O)C(=O)OCc2c1cc1n(c2=O)Cc2cc3c(CN(C)C)c(O)ccc3nc2-1 | 85.2% and 98.8% and 103% |  | 48.6% and 38.9% and 38.2% |  |  |  | 111% and 105% and 82.9% | 80.6% and 108% and 97.9% | 113% and 76.5% and 112% | 71% and 84.4% and 94.9% |
| > 10000 nM and 6750 nM | COc1cc(C2c3cc4c(cc3C(OC3OC5COC(C)OC5C(O)C3O)C3COC(=O)C23)OCO4)cc(OC)c1O (configuration not stated) | 88.4% and 94.8% and 88.6% | 89% and 80.4% and 92% | 76.1% and 86.3% and 92.8% | 89.5% and 99.4% and 80.7% | 74.5% and 95.4% and 76.1% | 56.4% and 62.6% and 37% |  |  |  |  |
| > 10000 nM | COc1ccc([C@@H](O)c2cc(-c3ncnc4cc(N5CCOCC5)ccc34)c(F)cc2Cl)nn1 | 93.2% and 109% and 98.5% | 99.4% and 61.7% and 94.8% | 103% and 87% and 92.8% | 93.4% and 83.4% and 86.5% | 92% and 94.4% and 85% | 69.3% and 69% and 52.9% |  |  |  |  |
| > 10000 nM | Cc1cccc(N(C)C(=O)C2C(O)CCN2c2nc(C)cc(C(F)(F)F)c2C#N)c1 (configuration not stated) | 90.6% and 93.6% and 97.1% | 106% and 90.6% and 105% | 83.6% and 87.3% and 122% | 118% and 86.8% and 91.9% | 122% and 71.7% and 102% | 110% and 94.2% and 78.3% |  |  |  |  |
| < 31.6 nM | Nc1ccn(C2OC(CO)C(O)C2(F)F)c(=O)n1 (configuration not stated) | 22.6% and 12.1% and 26.3% | 22% and 11.3% and 23.6% | 28% and 12.5% and 23.7% | 24.6% and 13.1% and 30.6% | 23.4% and 12.9% and 18.8% | 20.9% and 11.3% and 20.8% |  |  |  |  |
| > 10000 nM and 3850 nM | O=c1[nH]cc(F)c(=O)[nH]1 | 104% and 107% and 113% | 98.3% and 97.9% and 83.3% | 99.5% and 94.9% and 75% | 76% and 72.9% and 90.1% | 81.2% and 74.1% and 57% | 47.9% and 65.3% and 16.6% |  |  |  |  |

Further lines, the compound ahead of its results:

| Compound | IC50 | viability, T/C (compound 0.0316 µM) | viability, T/C (compound 0.1 µM) | viability, T/C (compound 0.316 µM) | viability, T/C (compound 1 µM) | viability, T/C (compound 3.16 µM) | viability, T/C (compound 10 µM) | viability, T/C (compound 0.000999 µM) | viability, T/C (compound 0.00316 µM) | viability, T/C (compound 0.00999 µM) | viability, T/C (compound 0.0999 µM) |
| --- | --- | --- | --- | --- | --- | --- | --- | --- | --- | --- | --- |
| CC(C)n1c(=O)n(C)c2cnc3cc(F)c(-c4ccc(OCCCN5CCCCC5)nc4)cc3c21 | > 10000 nM and 7750 nM | 96.3% and 98.6% and 87.9% | 105% and 85.5% and 77.3% | 70.1% and 91.7% and 63.2% | 96% and 84.2% and 81.9% | 77.9% and 79.6% and 84.8% | 49.7% and 55.9% and 41.8% |  |  |  |  |
| CC1COCCN1c1cc(C2(O)CC3CCC(C2)O3)c2cnn(-c3ccn[nH]3)c2n1 (configuration not stated) | 514 nM and 326 nM and 460 nM | 93.2% and 97.1% and 107% | 80.6% and 62.3% and 68.6% | 54.2% and 56.9% and 63.5% | 41.3% and 36% and 37.9% | 26.8% and 19.8% and 23.5% | 18.6% and 15.3% and 15.6% |  |  |  |  |
| CCc1c2c(nc3ccc(O)cc13)-c1cc3c(c(=O)n1C2)COC(=O)[C@]3(O)CC | 8.01 nM and 5.66 nM and 7.43 nM | 18.4% and 10.6% and 23.2% |  | 24.9% and 13.8% and 31.8% |  |  |  | 87% and 104% and 96.5% | 71.4% and 69.9% and 67.3% | 48% and 31.8% and 48.8% | 24.3% and 11.3% and 29.4% |
| COc1cccc2c1C(=O)c1c(O)c3c(c(O)c1C2=O)CC(O)(C(=O)CO)CC3OC1CC(N)C(O)C(C)O1 (configuration not stated) | > 10000 nM and 4820 nM and 8460 nM | 101% and 78% and 112% | 85.8% and 98% and 78.3% | 83.7% and 94.3% and 93% | 108% and 71.4% and 89.4% | 68.2% and 64.5% and 86% | 57.2% and 28.9% and 43.5% |  |  |  |  |
| Cc1[nH]c2ccccc2c1CCNCc1ccc(/C=C/C(=O)NO)cc1 | > 316 nM | 101% and 89% and 85.7% |  | 57.2% and 55.4% and 52.3% |  |  |  | 83.6% and 110% and 88.9% | 102% and 93.8% and 74% | 70% and 75.6% and 89.6% | 63.2% and 87.7% and 68.7% |
| Cc1cnc(CNC(=O)c2c(=O)c3ccc(N4CCCN(C)CC4)nc3n3c2sc2ccccc23)cn1 |  | 83.9% [middle of 12 runs] | 66% [middle of 12 runs] |  | 53.7% [middle of 12 runs] | 49.3% [middle of 12 runs] | 46.9% [middle of 12 runs] |  |  |  |  |
| Cn1ncnc1[C@H]1c2n[nH]c(=O)c3cc(F)cc(c23)N[C@@H]1c1ccc(F)cc1 | > 316 nM | 87.9% and 74.9% and 91.4% |  | 54.5% and 62% and 59.1% |  |  |  | 93.3% and 98.8% and 108% | 101% and 78.7% and 113% | 76.9% and 101% and 85.8% | 68.9% and 72% and 78.9% |
| O=C(c1cc(Cc2n[nH]c(=O)c3ccccc23)ccc1F)N1CCN(C(=O)C2CC2)CC1 | > 10000 nM | 86.5% and 123% and 91.1% | 93% and 92.2% and 94.4% | 102% and 98.1% and 105% | 86.7% and 85.6% and 86.3% | 88.2% and 92.5% and 92.1% | 99.3% and 77.2% and 85.4% |  |  |  |  |
